Data as given in ChEMBL document CHEMBL1201862, “PubChem BioAssay data set” (2004).
Activity calls are given as the source filed them.

Key:
[1] = viability loss of HPDE-C7K cells – cell-based, fluorescence, HTS, primary screen (AID 431); type: functional; conditions: Homo sapiens
[2] = HPDE-C7 pancreatic duct cell viability loss – fluorescence, HTS (AID 430); type: functional, cell-based; conditions: Homo sapiens
Aminopeptidase N = molecular target: T1, Aminopeptidase N (Plasmodium falciparum FcB1/Columbia, UniProt O96935); assay: malaria alanyl aminopeptidase activity blockers – biochemical, fluorogenic H-Leu-NHMec substrate, 1536-well (AID 1445); design: species or system Plasmodium falciparum 3D7, 3D7
T1 sequence (O96935 whole entry): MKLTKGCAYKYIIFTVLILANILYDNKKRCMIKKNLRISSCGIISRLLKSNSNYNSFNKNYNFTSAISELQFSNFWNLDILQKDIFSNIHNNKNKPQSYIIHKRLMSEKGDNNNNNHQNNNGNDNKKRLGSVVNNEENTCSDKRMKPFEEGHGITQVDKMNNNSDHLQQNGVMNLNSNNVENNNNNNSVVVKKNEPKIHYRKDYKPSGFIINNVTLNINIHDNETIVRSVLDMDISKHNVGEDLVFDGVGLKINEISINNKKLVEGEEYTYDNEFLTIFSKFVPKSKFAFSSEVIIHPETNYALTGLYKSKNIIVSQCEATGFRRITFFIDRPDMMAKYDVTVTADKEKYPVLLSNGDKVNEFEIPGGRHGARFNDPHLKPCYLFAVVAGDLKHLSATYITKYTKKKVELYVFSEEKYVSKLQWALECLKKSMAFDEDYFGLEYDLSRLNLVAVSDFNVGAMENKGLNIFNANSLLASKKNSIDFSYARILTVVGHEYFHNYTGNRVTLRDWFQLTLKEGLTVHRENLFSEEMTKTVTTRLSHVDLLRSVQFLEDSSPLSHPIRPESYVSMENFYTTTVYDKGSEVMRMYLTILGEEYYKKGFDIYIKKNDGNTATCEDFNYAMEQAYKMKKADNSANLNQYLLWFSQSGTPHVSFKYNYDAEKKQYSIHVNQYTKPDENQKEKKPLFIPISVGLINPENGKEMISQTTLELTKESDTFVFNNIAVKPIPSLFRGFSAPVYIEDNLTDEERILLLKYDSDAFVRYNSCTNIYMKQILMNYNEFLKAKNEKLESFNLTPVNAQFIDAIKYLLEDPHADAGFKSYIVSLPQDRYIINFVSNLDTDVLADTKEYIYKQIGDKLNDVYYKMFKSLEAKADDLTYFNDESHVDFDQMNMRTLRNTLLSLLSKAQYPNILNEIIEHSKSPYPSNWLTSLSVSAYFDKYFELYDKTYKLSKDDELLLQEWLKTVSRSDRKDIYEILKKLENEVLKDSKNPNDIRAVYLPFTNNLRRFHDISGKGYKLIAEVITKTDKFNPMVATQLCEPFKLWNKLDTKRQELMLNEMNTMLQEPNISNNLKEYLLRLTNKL

[3] = NIH3T3 cell viability loss – ATP luminescence, mouse fibroblasts, counter-screen, dose response (AID 2010); type: functional, cell-based;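 note: cells exposed to compound for about 90 hours before reading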
Cytochrome P450 1A2 = molecular target: T2, Cytochrome P450 1A2 (Homo sapiens, UniProt P05177);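 note: PubChem cytochrome P450 panel assay, CYP1A2 panel member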
T2 sequence (P05177 whole entry): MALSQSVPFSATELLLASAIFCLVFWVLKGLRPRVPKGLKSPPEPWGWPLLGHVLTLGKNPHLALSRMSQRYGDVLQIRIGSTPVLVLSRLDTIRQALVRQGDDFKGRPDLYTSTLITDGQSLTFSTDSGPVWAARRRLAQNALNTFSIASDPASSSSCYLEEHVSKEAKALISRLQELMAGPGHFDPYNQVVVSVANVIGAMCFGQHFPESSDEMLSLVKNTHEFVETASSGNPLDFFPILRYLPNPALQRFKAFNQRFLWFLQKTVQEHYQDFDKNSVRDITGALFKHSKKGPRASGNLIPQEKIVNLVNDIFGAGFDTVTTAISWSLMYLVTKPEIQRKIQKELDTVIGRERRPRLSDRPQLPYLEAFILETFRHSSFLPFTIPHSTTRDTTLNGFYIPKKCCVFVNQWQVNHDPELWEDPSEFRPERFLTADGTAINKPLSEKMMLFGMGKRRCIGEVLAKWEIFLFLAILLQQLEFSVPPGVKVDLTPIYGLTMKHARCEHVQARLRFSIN

Cytochrome P450 2C19 = Cytochrome P450 2C19 (Homo sapiens, UniProt P33261); assay: Cytochrome panel assay with activity outcomes. Panel member name: p450-cyp2c19 Compounds with AC50 equal or less than 10 uM are considered active; type: functional; conditions: read-out: AC50
Sequence of Cytochrome P450 2C19 (P33261 whole entry): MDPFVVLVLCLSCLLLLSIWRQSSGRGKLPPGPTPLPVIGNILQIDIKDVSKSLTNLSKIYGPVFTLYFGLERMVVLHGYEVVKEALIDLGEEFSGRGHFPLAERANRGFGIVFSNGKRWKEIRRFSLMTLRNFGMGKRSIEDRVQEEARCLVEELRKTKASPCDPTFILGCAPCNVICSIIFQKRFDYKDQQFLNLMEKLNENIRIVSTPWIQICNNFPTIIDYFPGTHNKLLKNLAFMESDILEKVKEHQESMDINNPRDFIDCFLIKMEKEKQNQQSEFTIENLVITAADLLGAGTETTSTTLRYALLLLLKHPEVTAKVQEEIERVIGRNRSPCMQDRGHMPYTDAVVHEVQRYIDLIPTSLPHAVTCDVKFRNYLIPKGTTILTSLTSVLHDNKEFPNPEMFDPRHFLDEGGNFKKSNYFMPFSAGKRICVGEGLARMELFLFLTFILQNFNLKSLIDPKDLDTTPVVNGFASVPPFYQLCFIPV

[4] = Luminescent dose response cell-based high throughput screening assay for inhibitors of the Janus kinase 2 mutant JAK2V617F. [Related pubchem assays: 1446 (Primary screen.), 1521 (Confirmation assay.), 1486 (Counter screen.)]; type: functional
[5] = Trypanosoma cruzi growth suppression in host cells – NIH3T3 host cells, beta-gal luminescence, confirmation (AID 2044); type: functional, cell-based;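 note: intracellular parasites grown in NIH/3T3 mouse fibroblasts as host cells; luminescent beta-galactosidase reporter signal from transgenic T. cruzi replicating inside host cells; inhibitors lower the luminescence signal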
Streptococcus = assay: GAS UMAA2166 growth inhibition – luminescence, BacTiterGlo, counter-screen for streptokinase expression inhibitor project, dose response (AID 1915); type: functional, organism-based;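 note: potency for reduction of bacterial viability or growth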
[6] = molecular target: 26S proteasome non-ATPase regulatory subunit 14 (Homo sapiens, UniProt O00487); assay: inhibition of proteasome subunit RPN11 – biochemical, fluorescence polarization, uHTS hits, confirmation (AID 602368); type: functional
Sequence of 26S proteasome non-ATPase regulatory subunit 14 (O00487 whole entry): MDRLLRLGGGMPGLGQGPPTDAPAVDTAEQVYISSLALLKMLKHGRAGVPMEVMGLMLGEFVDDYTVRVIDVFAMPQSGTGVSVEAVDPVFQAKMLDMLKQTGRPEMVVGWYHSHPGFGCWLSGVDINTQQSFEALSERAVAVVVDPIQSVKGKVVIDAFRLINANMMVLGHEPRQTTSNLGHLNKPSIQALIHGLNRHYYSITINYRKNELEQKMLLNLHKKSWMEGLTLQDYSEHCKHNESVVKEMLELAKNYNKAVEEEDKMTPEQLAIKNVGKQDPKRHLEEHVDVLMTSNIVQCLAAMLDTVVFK

[7] = system: Streptococcus sp. 'group A'; assay: Streptococcus pyogenes SK(-)GAS viability under kanamycin – luminescence, BacTiterGlo, confirmation, counter-screen for streptokinase expression inhibitor project, dose response (AID 1900); type: functional, organism-based
Streptokinase A = molecular target: T3, Streptokinase A (Streptococcus pyogenes serotype M1, UniProt P10520); assay: viability-normalized secreted streptokinase activity reduction – plasminogen activation absorbance, OD405, dose response (AID 1914); type: functional, Streptococcus pyogenes M1 GAS;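 note: secreted streptokinase activity via plasminogen activation per viability signal from cell pellet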
T3 sequence (P10520 whole entry): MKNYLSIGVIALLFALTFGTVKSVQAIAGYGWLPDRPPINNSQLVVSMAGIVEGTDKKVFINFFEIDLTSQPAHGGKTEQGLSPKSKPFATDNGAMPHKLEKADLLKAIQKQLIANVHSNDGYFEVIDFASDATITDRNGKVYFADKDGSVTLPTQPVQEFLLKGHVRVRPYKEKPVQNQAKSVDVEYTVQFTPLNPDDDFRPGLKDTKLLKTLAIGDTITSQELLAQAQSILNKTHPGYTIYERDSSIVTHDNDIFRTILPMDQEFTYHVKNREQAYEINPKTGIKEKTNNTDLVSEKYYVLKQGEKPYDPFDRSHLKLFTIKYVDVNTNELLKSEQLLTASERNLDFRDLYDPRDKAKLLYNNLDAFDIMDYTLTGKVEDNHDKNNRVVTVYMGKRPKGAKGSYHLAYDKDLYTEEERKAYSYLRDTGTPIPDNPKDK

INS1 = assay: INS-1E survival protection against cytokine death – cell-based, luminescence, retest, dose response (AID 449756); type: functional; conditions: Rattus norvegicus;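 note: cell death triggered by IL-1 beta plus TNF-alpha plus IFN-gamma mixture; protective hits raise ATP signal compared with cytokine alone wells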
[8] = fluconazole-exposed Candida albicans growth modulators – fluorescence, retest, confirmation (AID 2467); type: functional, cell-based
Prothrombin = Prothrombin (Bos taurus, UniProt P00735); assay: thrombin protease inhibitors – biochemical, fluorescence polarization, uHTS hits, dose response (AID 602369); type: functional
[9] = CCR5-tropic HIV-1 fusion blockers – cell-based, CCR5-tropic Env, dose response (AID 2279); type: functional
[10] = molecular target: 72 kDa type IV collagenase (Homo sapiens, UniProt P08253); assay: Dose Response validation of uHTS RPN11 inhibitor hits using a MMP-2 Fluorescence assay.; type: functional
Sequence of 72 kDa type IV collagenase (P08253 whole entry): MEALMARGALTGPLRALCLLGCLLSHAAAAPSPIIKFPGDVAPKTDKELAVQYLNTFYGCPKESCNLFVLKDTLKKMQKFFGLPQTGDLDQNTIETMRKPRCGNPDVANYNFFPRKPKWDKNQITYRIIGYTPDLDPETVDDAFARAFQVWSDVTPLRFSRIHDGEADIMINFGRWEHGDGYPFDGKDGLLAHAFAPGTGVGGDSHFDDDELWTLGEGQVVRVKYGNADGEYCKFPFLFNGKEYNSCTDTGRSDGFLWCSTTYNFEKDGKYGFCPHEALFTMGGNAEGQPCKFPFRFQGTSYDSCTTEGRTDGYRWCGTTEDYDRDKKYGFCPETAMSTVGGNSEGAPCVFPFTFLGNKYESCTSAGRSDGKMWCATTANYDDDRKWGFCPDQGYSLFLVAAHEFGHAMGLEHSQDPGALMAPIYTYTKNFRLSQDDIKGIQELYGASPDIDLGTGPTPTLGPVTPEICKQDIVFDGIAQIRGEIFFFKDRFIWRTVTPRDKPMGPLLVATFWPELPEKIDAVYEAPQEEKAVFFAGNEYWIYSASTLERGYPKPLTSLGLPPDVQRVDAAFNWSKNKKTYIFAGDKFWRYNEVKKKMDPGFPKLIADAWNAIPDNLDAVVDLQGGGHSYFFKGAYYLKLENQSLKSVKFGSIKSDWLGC

[11] = NIH-3T3 fibroblast cytotoxicity, dose response, cytotoxicity control, cell-based, fluorescence, Alamar Blue, secondary assay (AID 2327); type: functional;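 note: NIH-3T3 mouse fibroblasts cultured with fluconazole at 8 µg/mL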
[12] = molecular target: Protein-tyrosine kinase 2-beta (Homo sapiens, UniProt Q14289);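 note: potency of inhibitors of PYK2 kinase phosphorylation of poly-GT substrate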
Sequence of Protein-tyrosine kinase 2-beta (Q14289 whole entry): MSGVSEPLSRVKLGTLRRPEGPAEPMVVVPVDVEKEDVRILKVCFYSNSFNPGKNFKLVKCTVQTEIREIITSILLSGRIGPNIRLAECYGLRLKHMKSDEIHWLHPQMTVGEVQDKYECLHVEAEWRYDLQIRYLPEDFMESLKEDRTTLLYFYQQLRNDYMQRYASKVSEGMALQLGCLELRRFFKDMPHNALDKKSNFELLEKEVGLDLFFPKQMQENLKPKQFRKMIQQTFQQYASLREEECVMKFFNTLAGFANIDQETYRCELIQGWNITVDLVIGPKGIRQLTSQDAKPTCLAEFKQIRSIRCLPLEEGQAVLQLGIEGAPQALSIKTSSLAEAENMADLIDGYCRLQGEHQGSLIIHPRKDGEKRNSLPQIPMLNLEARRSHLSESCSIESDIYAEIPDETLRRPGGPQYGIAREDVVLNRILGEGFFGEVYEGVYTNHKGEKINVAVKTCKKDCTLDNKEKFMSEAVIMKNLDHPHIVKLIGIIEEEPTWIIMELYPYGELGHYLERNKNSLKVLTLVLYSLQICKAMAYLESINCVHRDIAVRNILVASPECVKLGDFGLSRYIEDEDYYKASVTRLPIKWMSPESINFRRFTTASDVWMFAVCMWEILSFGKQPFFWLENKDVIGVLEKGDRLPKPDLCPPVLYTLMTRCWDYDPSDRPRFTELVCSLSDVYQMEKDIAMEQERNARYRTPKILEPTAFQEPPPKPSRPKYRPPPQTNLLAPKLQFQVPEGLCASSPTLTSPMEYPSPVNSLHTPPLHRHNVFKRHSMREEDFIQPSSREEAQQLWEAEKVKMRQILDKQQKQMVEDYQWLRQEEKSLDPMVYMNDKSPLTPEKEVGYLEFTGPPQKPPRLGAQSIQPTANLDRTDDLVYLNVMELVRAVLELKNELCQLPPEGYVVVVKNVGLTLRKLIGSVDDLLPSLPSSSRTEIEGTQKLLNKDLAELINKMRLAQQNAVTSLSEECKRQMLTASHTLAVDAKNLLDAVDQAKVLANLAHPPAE

[13] = Luminescence Cell-Based Dose Response HTS to Identify Inhibitors of 5'UTR Stem-Loop Driven Prion Protein mRNA Translation in H4 Neuroglioblastoma Cells. [Related pubchem assays: 1827 (Project Summary), 1813 (Primary HTS)]; type: functional
[14] = luciferase reporter signal suppression in cells – H4 neuroglioma cells, luminescence, dose response (AID 1990); type: functional, cell-based
[15] = alpha-synuclein stem-loop luciferase translation blockers – H4 neuroglioma cells, luminescence, confirmation (AID 1988); type: functional, cell-based
Bcl-2-related protein A1 [16] = molecular target: T4, Bcl-2-related protein A1 (Mus musculus, UniProt Q07440); assay: small-molecule antagonists of Bfl-1/BH3 interaction – biochemical, TR-FRET, mouse Bfl-1, confirmation (AID 621);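 note: TR-FRET binding of GST-Bfl-1 to FITC-labelled Bid peptide via terbium antibody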
T4 sequence (Q07440 whole entry): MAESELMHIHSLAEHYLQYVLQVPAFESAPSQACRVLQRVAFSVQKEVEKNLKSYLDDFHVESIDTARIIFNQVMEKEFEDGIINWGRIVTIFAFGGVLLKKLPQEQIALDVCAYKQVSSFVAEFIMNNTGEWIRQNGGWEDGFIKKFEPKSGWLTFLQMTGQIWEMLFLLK

Bcl-2-related protein A1 [17] = molecular target: T4, Bcl-2-related protein A1; assay: Bfl-1 binding inhibitors, SAR follow-up, biochemical, fluorescence polarization (AID 1070)
[18] = molecular target: Glyceraldehyde-3-phosphate dehydrogenase (Homo sapiens, UniProt P04406)
Sequence of Glyceraldehyde-3-phosphate dehydrogenase (P04406 whole entry): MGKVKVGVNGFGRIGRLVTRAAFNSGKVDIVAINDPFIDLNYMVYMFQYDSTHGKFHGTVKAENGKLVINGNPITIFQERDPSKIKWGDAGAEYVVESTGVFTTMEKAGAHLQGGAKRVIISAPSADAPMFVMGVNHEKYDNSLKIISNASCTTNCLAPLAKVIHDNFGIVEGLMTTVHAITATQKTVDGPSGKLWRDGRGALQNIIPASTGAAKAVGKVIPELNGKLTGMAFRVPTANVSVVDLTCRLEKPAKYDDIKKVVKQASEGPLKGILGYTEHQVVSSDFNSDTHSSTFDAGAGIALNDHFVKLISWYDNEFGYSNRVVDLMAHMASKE

[19] = reduction of Shn3 3'UTR-driven luciferase in osteoblasts – cell-based, Clone20 osteoblasts, firefly luciferase, cherry-picked, dose response (AID 624132); type: functional;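 note: firefly luciferase luminescence from reporter carrying the Shn3 3'UTR in osteoblasts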
[20] = viability of PTEN-deleted HCT116 cells – cell-based, HCT116 PTEN knockout, dose response (AID 1047); type: functional;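 note: HCT116 colon tumor cells with PTEN knocked out; cells exposed to compound for 60 hours before readout; potency for loss of cell viability measured by luminescence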
[21] = loss of viability in HepG2 cells – cell-based, CellTiter-Glo, cherry-picked, cytotoxicity control for Shn3 inhibitor project, dose response (AID 624134); type: functional
[22] = viability of HCT116 lacking mutant beta-catenin – cell-based, human colon tumor, dose response (AID 1045); type: functional;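 note: HCT116 colon tumor cells with beta catenin knocked out; cells exposed to compound for 60 hours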
[23] = non-specific 3'UTR reporter inhibition in Clone20-Shn3RL – cell-based, Renilla luciferase, cherry-picked, counter-screen for Shn3 inhibitor project, dose response (AID 624133); type: functional

SMILES: COC(=O)c1ccc(O)c(Sc2cc(C(=O)OC)ccc2O)c1
- EC50 [1]: > 20 µM (not active)
- EC50 [2]: 13.6 µM (active)
- IC50 (Aminopeptidase N): 33.1 µM (active)

SMILES: COc1ccc(N2CCc3c(C)nc4c(OC)cc(OC)cc4c32)c(OC)c1
- EC50 [3]: > 60 µM (not active)
- AC50 (Cytochrome P450 1A2): 22.4 µM (inconclusive)
- AC50 (Cytochrome P450 2C19): 28.2 µM (inconclusive)
- IC50 [4]: 1.87 µM (active)
- EC50 [5]: 0.839 µM (active)

SMILES: COc1cc([N+](=O)[O-])cc(/C=N/NC(=O)c2cc(-c3ccccc3)nc3ccccc23)c1O
- EC50 (Streptococcus): 8.58 µM (active)
- IC50 [6]: 22.3 µM (active)
- EC50 [7]: 5.37 µM (active)
- EC50 (Streptokinase A): > 150 µM (not active)
- AC50 (INS1): 3.63 µM (active)
- EC50 [8]: 2.08 µM (active)
- IC50 (Prothrombin): 75.1 µM (active)
- IC50 [9]: 31.7 µM (active)
- IC50 [10]: 3.79 µM (active)
- EC50 [11]: 22.5 µM (inconclusive)

SMILES: CC(C)(C)C(=O)Nc1nc2c(s1)COc1ccccc1-2
- IC50 [12]: > 69.5 µM (not active)

SMILES: CCOc1ccc(CCNC(=O)c2ccc3c(=O)[nH]c4c(C(=O)NC(C)C)sc(=S)n4c3c2)cc1
- IC50 [9]: 30.1 µM (active)

SMILES: CC(C)c1ccc(-n2c(-c3ccccc3)c[n+]3c2CCc2ccccc2-3)cc1
- EC50 [3]: > 60 µM (not active)
- EC50 [13]: > 120 µM (not active)
- EC50 [14]: 9.52 µM (active)
- EC50 [5]: < 0.1 µM (active)
- EC50 [15]: 11.7 µM (active)
- EC50 (cells): 0.041 µM (active)

SMILES: CCOC(=O)CS(=O)(=O)c1nc2c(c(C(F)(F)F)n1)CCc1ccccc1-2
- IC50 (Bcl-2-related protein A1 [16]): > 100 µM (not active)
- IC50 (Bcl-2-related protein A1 [17]): > 100 µM (not active)
- IC50 [18]: > 100 µM (not active)

SMILES: Cc1cc(C)c(O)c(-c2cc(C(=O)Nc3ccc(S(=O)(=O)N4CCOCC4)cc3)[nH]n2)c1
- AC50 [19]: 5.48 µM (active)
- EC50 [1]: 9.32 µM (active)
- EC50 [20]: 8.35 µM (active)
- AC50 [21]: 19.9 µM (active)
- EC50 [2]: 9.42 µM (active)
- EC50 [22]: 10 µM (active)
- AC50 [23]: 7.37 µM (active)
